# Read-outs that look alike come from different tables or passages of the source. Marks after values point to notes of the source that are not given here.
# Legend:
# [1] = molecular target: T1, α1β3L231Cγ2L GABAA receptors (Homo sapiens, UniProt P14867+P18507+P28472, L256C); assay: Drug protection from pCMBS modification (SCAMP); assay type: cell-based; set-up: key: +: Mutant-function studies are deemed positive when bulky mutations (mostly tryptophans) at the site significantly reduce positive modulation by anesthetics; -: Negative results are indicated by “–“ symbols; settings: results of this study (*); some cells also cite [9]
# T1 construct: expressed in transfected cells; host or cells: Xenopus oocytes injected with capped mRNA, 1α:1β:5γ
# T1 sequence (P14867 28-456): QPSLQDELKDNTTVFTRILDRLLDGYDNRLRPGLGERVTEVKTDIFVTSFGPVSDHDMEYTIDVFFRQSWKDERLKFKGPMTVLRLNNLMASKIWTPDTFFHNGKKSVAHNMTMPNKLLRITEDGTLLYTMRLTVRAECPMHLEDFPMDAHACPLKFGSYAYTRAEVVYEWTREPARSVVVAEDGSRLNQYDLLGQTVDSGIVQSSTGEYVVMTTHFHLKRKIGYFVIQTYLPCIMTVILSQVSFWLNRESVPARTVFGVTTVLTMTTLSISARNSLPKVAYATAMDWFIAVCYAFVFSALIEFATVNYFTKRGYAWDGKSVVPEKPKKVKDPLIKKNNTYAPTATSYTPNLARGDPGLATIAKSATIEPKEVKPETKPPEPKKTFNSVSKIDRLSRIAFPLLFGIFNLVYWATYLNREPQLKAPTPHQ
# T1 sequence (P28472 26-473 L256C): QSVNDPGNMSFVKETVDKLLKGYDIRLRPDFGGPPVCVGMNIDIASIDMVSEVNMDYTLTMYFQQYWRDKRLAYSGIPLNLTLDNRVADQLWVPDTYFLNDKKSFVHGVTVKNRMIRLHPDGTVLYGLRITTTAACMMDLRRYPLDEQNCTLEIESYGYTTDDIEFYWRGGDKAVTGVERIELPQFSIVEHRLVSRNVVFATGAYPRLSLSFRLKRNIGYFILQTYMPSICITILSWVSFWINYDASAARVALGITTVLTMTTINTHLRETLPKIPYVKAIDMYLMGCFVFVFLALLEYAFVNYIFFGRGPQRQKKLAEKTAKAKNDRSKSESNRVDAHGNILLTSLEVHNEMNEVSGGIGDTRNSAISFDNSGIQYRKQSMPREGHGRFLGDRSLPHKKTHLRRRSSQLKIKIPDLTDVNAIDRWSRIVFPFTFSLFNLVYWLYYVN
# T1 sequence (P18507 40-475): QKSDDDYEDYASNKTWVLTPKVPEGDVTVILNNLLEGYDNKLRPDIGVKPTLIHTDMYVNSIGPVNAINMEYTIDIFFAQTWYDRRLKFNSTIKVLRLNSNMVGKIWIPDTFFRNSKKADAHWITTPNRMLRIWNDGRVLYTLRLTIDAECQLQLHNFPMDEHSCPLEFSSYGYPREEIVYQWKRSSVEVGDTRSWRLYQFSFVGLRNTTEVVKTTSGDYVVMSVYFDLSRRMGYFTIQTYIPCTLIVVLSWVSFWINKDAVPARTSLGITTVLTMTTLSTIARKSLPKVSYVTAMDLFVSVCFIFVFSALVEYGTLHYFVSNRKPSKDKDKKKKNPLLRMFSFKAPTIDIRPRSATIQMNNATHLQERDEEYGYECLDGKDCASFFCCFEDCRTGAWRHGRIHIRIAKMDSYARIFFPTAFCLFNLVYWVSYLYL
# Procedure: (§1) Experiments were performed in ND-96 buffer at room temperature (20–22°C). Oocytes were placed in a low-volume (30µl) flow chamber and impaled with borosilicate microelectrodes filled with 3M KCl (resistance 0.5–3 MΩ) and voltage-clamped at −50 mV (model OC-725C; Warner Instruments, Hamden, CT, USA). Superfusate solutions in ND-96 were delivered at 2 ml/min from glass syringe reservoirs via computer-controlled valves (VC-8; Warner Instruments), a micro-manifold (ALA-VM8; ALA Scientific Instruments, Farmingdale, NY, USA), and PTFE tubing. Currents were digitized at 200 Hz on a computer running ClampEx v8.0 software (Molecular Devices, San Jose, CA, USA). Digitized traces were filtered with a 10-Hz low-pass Bessel function, leak corrected and analyzed for peak amplitude off-line using Clampfit v8 software (Molecular Devices).
# (§2) Drug protection from pCMBS modification was assessed under pCMBS exposure conditions that produced approximately half of the maximal modification ratio for each mutant receptor, and a least a value of 3. This approach balanced the magnitude of functional modification signals (smaller with less pCMBS exposure) against the challenge of using a reversibly bound ligand to competitively block an irreversible covalent cysteine-modifying reaction. […] Each oocyte was used in a single SCAMP experiment. […] Etomidate was used as a positive control for anesthetic protection in α1M236C and β3M286C mutants and as a negative control in α1S270C, α1A291C, β3L231C, γ2S301C, γ2I242C, and γ2L246C mutants. R-mTFD-MPAB was used as a positive control in α1S270C, α1A291C, β3L231C, and γ2LS301C mutants and as a negative control in α1M236C and β3M286C mutants. For each cysteine mutant and protective drug combination, five oocytes were studied.
# (§3) Non-linear least squares fits and statistical analyses were performed in Prism 10.4.0. (GraphPad Software, San Diego, CA, USA). […] Protection (steric inhibition of pCMBS modification) was inferred when anesthetics produced significant reductions in modification ratios relative to control (no anesthetic) values. The statistical significance threshold was p < 0.05.
# [2] = molecular target: T2, α1β3γ2L246C GABAA receptors (Homo sapiens, UniProt P14867+P18507+P28472, L285C); assay: Drug protection from pCMBS modification (SCAMP); assay type: cell-based; set-up: key: +: Mutant-function studies are deemed positive when bulky mutations (mostly tryptophans) at the site significantly reduce positive modulation by anesthetics; -: Negative results are indicated by “–“ symbols; settings: results of this study (*); etomidate cell also cites [9]
# T2 construct: expressed in transfected cells; host or cells: Xenopus oocytes injected with capped mRNAs mixed 1α:1β:5γ
# T2 sequence (P14867 28-456, stated change not applied): as the sequence (P14867 28-456) above
# T2 sequence (P28472 26-473): as the sequence (P28472 26-473 L256C) above, with C231L counted along it
# T2 sequence (P18507 40-475 L285C): as the sequence (P18507 40-475) above, with L246C counted along it
# Procedure: as §1, §2, §3
# [3] = molecular target: T3, α1β3M286Cγ2L GABAA receptors (Homo sapiens, UniProt P14867+P18507+P28472, M311C); assay: Drug protection from pCMBS modification (SCAMP); assay type: cell-based; set-up: key: +: SCAMP is Substituted Cysteine Modification and Protection and is positive when adding anesthetic to cysteine modifier significantly reduces persistent post-exposure effects due to covalent modification; -: Negative results are indicated by “–“ symbols; settings: results of this study (*); etomidate cell also cites [16]
# T3 construct: expressed in transfected cells; host or cells: Xenopus oocytes injected with capped mRNA, 1α:1β:5γ
# T3 sequence (P14867 28-456): as the sequence (P14867 28-456) above
# T3 sequence (P28472 26-473 M311C): as the sequence (P28472 26-473 L256C) above, with C231L, M286C counted along it
# T3 sequence (P18507 40-475): as the sequence (P18507 40-475) above
# Procedure: as §1, §2, §3
# [4] = molecular target: T4, α1M236Cβ3γ2L GABAA receptors (Homo sapiens, UniProt P14867+P18507+P28472, M263C); assay: Drug protection from pCMBS modification (SCAMP); assay type: cell-based; set-up: key: +: SCAMP is Substituted Cysteine Modification and Protection and is positive when adding anesthetic to cysteine modifier significantly reduces persistent post-exposure effects due to covalent modification; -: Negative results are indicated by “–“ symbols; settings: results of this study (*); some cells also cite [9]
# T4 construct: expressed in transfected cells; host or cells: Xenopus oocytes injected with capped mRNA, 1α:1β:5γ
# T4 sequence (P14867 28-456 M263C): as the sequence (P14867 28-456) above, with M236C counted along it
# T4 sequence (P28472 26-473): as the sequence (P28472 26-473 L256C) above, with C231L counted along it
# T4 sequence (P18507 40-475): as the sequence (P18507 40-475) above
# Procedure: as §1, §2, §3
# [5] = molecular target: T2, α1β3γ2L246C GABAA receptors; assay: Drug protection from pCMBS modification (SCAMP); assay type: cell-based; set-up: key: +: SCAMP is Substituted Cysteine Modification and Protection and is positive when adding anesthetic to cysteine modifier significantly reduces persistent post-exposure effects due to covalent modification; -: Negative results are indicated by “–“ symbols; settings: results of this study (*); etomidate cell also cites [9]
# Procedure: as §1, §2, §3
# [6] = molecular target: T2, α1β3γ2L246C GABAA receptors; set-up: key: +: Mutant-function studies are deemed positive when bulky mutations (mostly tryptophans) at the site significantly reduce positive modulation by anesthetics; -: Negative results are indicated by “–“ symbols; settings: previously reported; cited from earlier work
# [7] = molecular target: T5, α1S270Cβ3γ2L GABAA receptors (Homo sapiens, UniProt P14867+P18507+P28472, S297C); assay: Drug protection from pCMBS modification (SCAMP); assay type: cell-based; set-up: key: +: SCAMP is Substituted Cysteine Modification and Protection and is positive when adding anesthetic to cysteine modifier significantly reduces persistent post-exposure effects due to covalent modification; -: Negative results are indicated by “–“ symbols; settings: results of this study (*)
# T5 construct: expressed in transfected cells; host or cells: Xenopus oocytes injected with capped mRNA, 1α:1β:5γ
# T5 sequence (P14867 28-456 S297C): as the sequence (P14867 28-456) above, with S270C counted along it
# T5 sequence (P28472 26-473): as the sequence (P28472 26-473 L256C) above, with C231L counted along it
# T5 sequence (P18507 40-475): as the sequence (P18507 40-475) above
# Procedure: as §1, §2, §3
smiles,measurement,setting,value
"CCOC(=O)c1cncn1[C@H](C)c1ccccc1 [etomidate, R-etomidate]","SCAMP result, β3– (M1) L231",[1],"-^[9], *"
same,"SCAMP result, γ2– (M1) L246",[2],"-^[9], *"
same,"SCAMP result, β3+ (M2, M3) M286",[3],"+^[16], *"
same,"SCAMP result, α1– (M1) M236",[4],"+^[9], *"
CC(C)c1cc(C2(C(F)(F)F)N=N2)cc(C(C)C)c1CO [pTFD-di-iPr-BnOH],"SCAMP result, γ2– (M1) L246",[5],+*
"C=CCC1(c2cccc(C3(C(F)(F)F)N=N3)c2)C(=O)NC(=O)N(C)C1=O (stereo not shown) [R-mTFD-MPAB, R-5-allyl-1-methyl-5-(m-trifluoromethyl-diazirynylphenyl) barbituric acid]","SCAMP result, γ2– (M1) L246",[6],-^[9]
same,"SCAMP result, α1+ (M2, M3) S270",[7],+*

# — publication PMC12591484 (PLOS One, 2025)
